Measured values published in the kinase profiling compilation of Christmann-Franck et al. (2016).

Experiments:
Experiment in all cases: KINOMEscan competition binding
[1] = molecular target: PKN2 (human) (UniProt Q16513)
[2] = molecular target: MAPKAPK2 (human) (UniProt P49137)
[3] = test system: ABL1 (human), P00519 [E255K]
[4] = molecular target: STK11 (human) (UniProt Q15831)
[5] = test system: EGFR (human), P00533 [746-750 del]
[6] = molecular target: PTK2 (human) (UniProt Q05397)
[7] = molecular target: NEK3 (human) (UniProt P51956)
Sequence of NEK3 (human) (P51956 whole entry, looked up): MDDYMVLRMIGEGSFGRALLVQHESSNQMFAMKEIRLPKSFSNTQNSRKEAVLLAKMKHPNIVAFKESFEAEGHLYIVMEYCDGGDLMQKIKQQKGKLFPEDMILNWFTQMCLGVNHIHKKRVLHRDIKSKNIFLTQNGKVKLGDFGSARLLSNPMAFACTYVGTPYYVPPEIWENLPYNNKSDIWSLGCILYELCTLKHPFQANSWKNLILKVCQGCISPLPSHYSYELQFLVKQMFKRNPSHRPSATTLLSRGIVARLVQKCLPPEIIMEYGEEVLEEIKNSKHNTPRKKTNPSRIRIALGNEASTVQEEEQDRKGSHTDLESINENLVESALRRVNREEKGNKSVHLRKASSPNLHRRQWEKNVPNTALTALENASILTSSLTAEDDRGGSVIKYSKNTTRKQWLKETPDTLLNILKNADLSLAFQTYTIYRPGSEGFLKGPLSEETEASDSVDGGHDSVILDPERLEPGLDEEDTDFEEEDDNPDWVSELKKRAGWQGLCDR

[8] = molecular target: ACVR2B (human) (UniProt Q13705)
[9] = molecular target: SRMS (human) (UniProt Q9H3Y6)
[10] = molecular target: STK38L (human) (UniProt Q9Y2H1)
[11] = molecular target: RIPK1 (human) (UniProt Q13546)
[12] = molecular target: MAPK7 (human) (UniProt Q13164)
[13] = molecular target: BMPR1B (human) (UniProt O00238)
[14] = molecular target: STK32A (human) (UniProt Q8WU08)
[15] = test system: EGFR (human), P00533 [T790M/L858R]
[16] = molecular target: LRRK2 (human) (UniProt Q5S007)
[17] = molecular target: PIM2 (human) (UniProt Q9P1W9)
[18] = molecular target: TNNI3K (human) (UniProt Q59H18)
[19] = molecular target: GRK4 (human) (UniProt P32298)
[20] = molecular target: PIP5K1C (human) (UniProt O60331)
Sequence of PIP5K1C (human) (O60331 whole entry, looked up): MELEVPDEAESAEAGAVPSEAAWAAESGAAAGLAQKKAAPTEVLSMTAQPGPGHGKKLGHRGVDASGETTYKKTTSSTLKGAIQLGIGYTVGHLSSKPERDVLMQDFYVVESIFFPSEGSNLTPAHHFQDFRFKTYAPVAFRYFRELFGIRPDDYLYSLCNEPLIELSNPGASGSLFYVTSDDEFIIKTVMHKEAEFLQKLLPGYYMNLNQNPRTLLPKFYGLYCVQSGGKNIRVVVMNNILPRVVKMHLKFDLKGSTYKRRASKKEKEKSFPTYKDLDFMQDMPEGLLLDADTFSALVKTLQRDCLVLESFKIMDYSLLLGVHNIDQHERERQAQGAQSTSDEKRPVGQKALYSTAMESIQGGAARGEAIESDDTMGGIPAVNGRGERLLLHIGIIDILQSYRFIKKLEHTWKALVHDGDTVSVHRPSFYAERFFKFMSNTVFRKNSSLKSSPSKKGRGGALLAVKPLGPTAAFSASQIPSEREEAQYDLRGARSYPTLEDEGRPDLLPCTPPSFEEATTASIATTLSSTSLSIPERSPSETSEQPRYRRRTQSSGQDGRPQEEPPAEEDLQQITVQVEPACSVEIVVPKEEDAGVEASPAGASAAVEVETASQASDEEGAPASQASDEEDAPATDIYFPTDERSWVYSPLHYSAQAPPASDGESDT

[21] = molecular target: PRKG2 (human) (UniProt Q13237)
[22] = molecular target: DCLK3 (human) (UniProt Q9C098)
[23] = molecular target: TRPM6 (human) (UniProt Q9BX84)
[24] = molecular target: SGK3 (human) (UniProt Q96BR1)
Sequence of SGK3 (human) (Q96BR1 whole entry, looked up): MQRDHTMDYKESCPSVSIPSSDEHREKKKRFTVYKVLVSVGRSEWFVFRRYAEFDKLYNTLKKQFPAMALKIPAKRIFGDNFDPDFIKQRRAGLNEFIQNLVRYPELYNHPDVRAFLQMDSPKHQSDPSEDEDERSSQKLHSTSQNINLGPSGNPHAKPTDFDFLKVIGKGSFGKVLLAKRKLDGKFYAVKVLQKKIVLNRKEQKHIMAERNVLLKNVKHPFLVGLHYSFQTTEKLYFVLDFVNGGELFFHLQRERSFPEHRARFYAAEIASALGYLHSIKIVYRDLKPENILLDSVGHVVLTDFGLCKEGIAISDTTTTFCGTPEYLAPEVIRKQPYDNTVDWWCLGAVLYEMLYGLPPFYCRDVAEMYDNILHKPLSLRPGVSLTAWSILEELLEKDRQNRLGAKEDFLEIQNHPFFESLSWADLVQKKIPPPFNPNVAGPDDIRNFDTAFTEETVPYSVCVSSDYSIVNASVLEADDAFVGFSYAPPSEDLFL

[25] = molecular target: DSTYK (human) (UniProt Q6XUX3)
[26] = molecular target: SRPK1 (human) (UniProt Q96SB4)
[27] = molecular target: JAK1 JH1 catalytic (human) (UniProt P23458)
[28] = test system: EGFR (human), P00533 [L861Q]
[29] = molecular target: SYK (human) (UniProt P43405)
[30] = molecular target: CDK18 (human) (UniProt Q07002)
[31] = molecular target: MAP3K13 (human) (UniProt O43283)
[32] = test system: PIK3CA (human), P42336 [H1047L]
[33] = molecular target: KDR (human) (UniProt P35968)
[34] = molecular target: JAK3 JH1 catalytic (human) (UniProt P52333)
[35] = molecular target: MAP3K7 (human) (UniProt O43318)
Sequence of MAP3K7 (human) (O43318 whole entry, looked up): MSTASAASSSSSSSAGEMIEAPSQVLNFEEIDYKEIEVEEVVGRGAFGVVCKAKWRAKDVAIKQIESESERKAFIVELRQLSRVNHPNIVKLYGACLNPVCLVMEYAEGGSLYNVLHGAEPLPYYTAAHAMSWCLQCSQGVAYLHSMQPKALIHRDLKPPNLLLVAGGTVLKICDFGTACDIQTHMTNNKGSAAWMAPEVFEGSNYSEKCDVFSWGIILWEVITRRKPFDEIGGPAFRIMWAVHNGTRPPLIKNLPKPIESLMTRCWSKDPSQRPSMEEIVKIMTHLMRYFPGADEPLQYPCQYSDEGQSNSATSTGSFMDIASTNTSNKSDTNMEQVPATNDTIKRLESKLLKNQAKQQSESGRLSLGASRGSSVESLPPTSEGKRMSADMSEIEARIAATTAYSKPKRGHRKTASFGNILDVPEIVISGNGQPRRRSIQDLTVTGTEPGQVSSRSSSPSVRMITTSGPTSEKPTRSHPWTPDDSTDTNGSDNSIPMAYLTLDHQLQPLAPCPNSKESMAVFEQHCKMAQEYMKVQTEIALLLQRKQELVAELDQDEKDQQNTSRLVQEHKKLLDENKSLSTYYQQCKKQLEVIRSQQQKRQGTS

[36] = molecular target: NTRK1 (human) (UniProt P04629)
Sequence of NTRK1 (human) (P04629 whole entry, looked up): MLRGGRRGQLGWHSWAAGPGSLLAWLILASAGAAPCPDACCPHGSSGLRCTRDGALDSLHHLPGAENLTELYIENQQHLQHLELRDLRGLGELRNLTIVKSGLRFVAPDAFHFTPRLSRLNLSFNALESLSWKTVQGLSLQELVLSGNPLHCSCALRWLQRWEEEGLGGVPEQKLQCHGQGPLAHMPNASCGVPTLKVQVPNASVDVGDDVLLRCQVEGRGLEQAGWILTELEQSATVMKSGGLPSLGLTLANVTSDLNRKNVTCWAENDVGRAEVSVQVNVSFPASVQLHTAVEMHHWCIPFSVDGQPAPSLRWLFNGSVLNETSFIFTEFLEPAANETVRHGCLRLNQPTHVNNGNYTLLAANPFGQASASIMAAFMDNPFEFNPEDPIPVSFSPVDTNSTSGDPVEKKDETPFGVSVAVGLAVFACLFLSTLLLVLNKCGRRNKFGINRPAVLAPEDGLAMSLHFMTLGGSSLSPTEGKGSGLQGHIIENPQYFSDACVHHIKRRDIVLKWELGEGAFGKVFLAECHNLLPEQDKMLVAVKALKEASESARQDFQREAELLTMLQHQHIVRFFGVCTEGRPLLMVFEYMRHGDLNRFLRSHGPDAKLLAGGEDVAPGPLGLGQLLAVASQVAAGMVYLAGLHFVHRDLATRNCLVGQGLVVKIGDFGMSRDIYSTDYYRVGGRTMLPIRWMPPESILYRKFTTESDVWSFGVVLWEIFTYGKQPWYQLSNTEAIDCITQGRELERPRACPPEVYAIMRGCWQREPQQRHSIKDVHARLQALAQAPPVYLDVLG

[37] = molecular target: SIK2 (human) (UniProt Q9H0K1)
[38] = molecular target: RPS6KA6 KD1 (human) (UniProt Q9UK32)
[39] = molecular target: TYK2 JH2 pseudokinase (human) (UniProt P29597)
[40] = molecular target: BRSK1 (human) (UniProt Q8TDC3)
Sequence of BRSK1 (human) (Q8TDC3 whole entry, looked up): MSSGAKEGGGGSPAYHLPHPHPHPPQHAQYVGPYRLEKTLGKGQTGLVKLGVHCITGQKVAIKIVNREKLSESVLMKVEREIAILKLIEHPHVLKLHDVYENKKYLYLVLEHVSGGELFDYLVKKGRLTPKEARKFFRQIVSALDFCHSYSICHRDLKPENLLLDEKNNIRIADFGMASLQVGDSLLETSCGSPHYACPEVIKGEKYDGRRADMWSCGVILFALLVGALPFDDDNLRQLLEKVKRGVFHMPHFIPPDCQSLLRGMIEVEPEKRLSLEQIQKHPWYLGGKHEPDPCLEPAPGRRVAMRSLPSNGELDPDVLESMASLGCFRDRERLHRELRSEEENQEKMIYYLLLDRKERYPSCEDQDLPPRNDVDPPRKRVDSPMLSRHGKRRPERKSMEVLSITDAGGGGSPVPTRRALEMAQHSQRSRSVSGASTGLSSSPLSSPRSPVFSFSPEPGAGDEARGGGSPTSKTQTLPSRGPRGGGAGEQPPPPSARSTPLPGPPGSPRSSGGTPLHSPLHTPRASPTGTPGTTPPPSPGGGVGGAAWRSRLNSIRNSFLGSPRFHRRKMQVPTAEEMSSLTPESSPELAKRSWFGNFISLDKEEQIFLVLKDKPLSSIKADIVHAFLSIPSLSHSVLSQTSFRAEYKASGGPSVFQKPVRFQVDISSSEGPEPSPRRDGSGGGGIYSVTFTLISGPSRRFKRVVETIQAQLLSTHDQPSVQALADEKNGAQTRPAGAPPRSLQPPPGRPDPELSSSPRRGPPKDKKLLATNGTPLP

[41] = molecular target: CSNK1A1 (human) (UniProt P48729)
[42] = molecular target: EPHB2 (human) (UniProt P29323)

Sequence of PTK2 (human) (Q05397 whole entry, looked up): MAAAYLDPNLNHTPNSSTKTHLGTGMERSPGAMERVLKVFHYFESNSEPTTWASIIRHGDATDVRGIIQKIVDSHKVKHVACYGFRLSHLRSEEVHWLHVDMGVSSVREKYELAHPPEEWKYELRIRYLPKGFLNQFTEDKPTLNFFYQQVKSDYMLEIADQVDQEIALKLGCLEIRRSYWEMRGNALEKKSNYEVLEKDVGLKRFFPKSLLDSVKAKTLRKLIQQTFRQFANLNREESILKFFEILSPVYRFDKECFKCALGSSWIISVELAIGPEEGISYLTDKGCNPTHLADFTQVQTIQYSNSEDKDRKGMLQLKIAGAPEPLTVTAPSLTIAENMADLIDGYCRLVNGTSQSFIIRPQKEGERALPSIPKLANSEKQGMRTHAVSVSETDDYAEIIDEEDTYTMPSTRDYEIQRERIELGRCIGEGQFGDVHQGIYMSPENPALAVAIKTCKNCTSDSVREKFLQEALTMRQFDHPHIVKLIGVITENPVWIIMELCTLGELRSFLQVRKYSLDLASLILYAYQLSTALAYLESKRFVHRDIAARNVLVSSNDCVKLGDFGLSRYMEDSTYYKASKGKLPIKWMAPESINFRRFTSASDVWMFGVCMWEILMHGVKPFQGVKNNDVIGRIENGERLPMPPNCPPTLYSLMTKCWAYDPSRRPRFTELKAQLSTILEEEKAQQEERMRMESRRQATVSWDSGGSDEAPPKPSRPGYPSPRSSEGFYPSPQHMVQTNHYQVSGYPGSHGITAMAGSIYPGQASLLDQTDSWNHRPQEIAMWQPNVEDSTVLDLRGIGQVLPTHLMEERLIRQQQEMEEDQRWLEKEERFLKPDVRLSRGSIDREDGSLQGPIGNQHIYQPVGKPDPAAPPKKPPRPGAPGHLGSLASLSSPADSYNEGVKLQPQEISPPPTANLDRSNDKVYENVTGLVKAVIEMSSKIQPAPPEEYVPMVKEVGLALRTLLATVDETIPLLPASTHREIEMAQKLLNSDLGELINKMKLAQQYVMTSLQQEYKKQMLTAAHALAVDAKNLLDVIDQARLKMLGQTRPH

`Cc1cc(NC(=O)c2cccc(NC(=O)/C=C/CN(C)C)c2)ccc1Nc1nccc(-c2cccnc2)n1` showed a kinase still bound, per cent of control ([1]; compound 1.0 µM) of 58%, a kinase still bound, per cent of control ([2]; compound 1.0 µM) of 100% and a kinase still bound, per cent of control ([3]; compound 1.0 µM) of 100%. For the same compound, the kinase still bound, per cent of control ([4]; compound 1.0 µM) was 100%, the kinase still bound, per cent of control ([5]; compound 1.0 µM) was 90% and the kinase still bound, per cent of control ([6]; compound 1.0 µM) was 11%. For the same compound, the kinase still bound, per cent of control ([7]; compound 1.0 µM) was 73%, the kinase still bound, per cent of control ([8]; compound 1.0 µM) was 100% and the kinase still bound, per cent of control ([9]; compound 1.0 µM) was 94%. It also gave a kinase still bound, per cent of control ([10]; compound 1.0 µM) of 100%, a kinase still bound, per cent of control ([11]; compound 1.0 µM) of 51% and a kinase still bound, per cent of control ([12]; compound 1.0 µM) of 100%. The kinase still bound, per cent of control ([13]; compound 1.0 µM) was 92%, the kinase still bound, per cent of control ([14]; compound 1.0 µM) was 78% and the kinase still bound, per cent of control ([15]; compound 1.0 µM) was 81%. The kinase still bound, per cent of control ([16]; compound 1.0 µM) was 50%, the kinase still bound, per cent of control ([17]; compound 1.0 µM) was 100% and the kinase still bound, per cent of control ([18]; compound 1.0 µM) was 100%. For the same compound, the kinase still bound, per cent of control ([19]; compound 1.0 µM) was 96%, the kinase still bound, per cent of control ([20]; compound 1.0 µM) was 93% and the kinase still bound, per cent of control ([21]; compound 1.0 µM) was 97%. The kinase still bound, per cent of control ([22]; compound 1.0 µM) was 100%, the kinase still bound, per cent of control ([23]; compound 1.0 µM) was 98% and the kinase still bound, per cent of control ([24]; compound 1.0 µM) was 48%. The kinase still bound, per cent of control ([25]; compound 1.0 µM) was 100%, the kinase still bound, per cent of control ([26]; compound 1.0 µM) was 99% and the kinase still bound, per cent of control ([27]; compound 1.0 µM) was 98%. The kinase still bound, per cent of control ([28]; compound 1.0 µM) was 100%, the kinase still bound, per cent of control ([29]; compound 1.0 µM) was 100% and the kinase still bound, per cent of control ([30]; compound 1.0 µM) was 100%. For the same compound, the kinase still bound, per cent of control ([31]; compound 1.0 µM) was 93%, the kinase still bound, per cent of control ([32]; compound 1.0 µM) was 100% and the kinase still bound, per cent of control ([33]; compound 1.0 µM) was 96%. It also gave a kinase still bound, per cent of control ([34]; compound 1.0 µM) of 87%, a kinase still bound, per cent of control ([35]; compound 1.0 µM) of 61% and a kinase still bound, per cent of control ([36]; compound 1.0 µM) of 87%. For the same compound, the kinase still bound, per cent of control ([37]; compound 1.0 µM) was 88%, the kinase still bound, per cent of control ([38]; compound 1.0 µM) was 100% and the kinase still bound, per cent of control ([39]; compound 1.0 µM) was 80%. For the same compound, the kinase still bound, per cent of control ([40]; compound 1.0 µM) was 100%, the kinase still bound, per cent of control ([41]; compound 1.0 µM) was 73% and the kinase still bound, per cent of control ([42]; compound 1.0 µM) was 100%.
`Cc1ccc(NC(=O)c2ccc(NC(=O)/C=C/CN(C)C)cc2)cc1Nc1nccc(-c2cccnc2)n1` gave a kinase still bound, per cent of control ([1]; compound 10.0 µM) of 91%, a kinase still bound, per cent of control ([2]; compound 10.0 µM) of 100% and a kinase still bound, per cent of control ([3]; compound 10.0 µM) of 64%. For the same compound, the kinase still bound, per cent of control ([4]; compound 10.0 µM) was 92%, the kinase still bound, per cent of control ([5]; compound 10.0 µM) was 61% and the kinase still bound, per cent of control ([6]; compound 10.0 µM) was 70%. It also gave a kinase still bound, per cent of control ([7]; compound 10.0 µM) of 99%, a kinase still bound, per cent of control ([8]; compound 10.0 µM) of 84% and a kinase still bound, per cent of control ([9]; compound 10.0 µM) of 71%. The kinase still bound, per cent of control ([10]; compound 10.0 µM) was 100%, the kinase still bound, per cent of control ([11]; compound 10.0 µM) was 56% and the kinase still bound, per cent of control ([12]; compound 10.0 µM) was 100%. For the same compound, the kinase still bound, per cent of control ([13]; compound 10.0 µM) was 79%, the kinase still bound, per cent of control ([14]; compound 10.0 µM) was 50% and the kinase still bound, per cent of control ([15]; compound 10.0 µM) was 100%. The kinase still bound, per cent of control ([16]; compound 10.0 µM) was 41%, the kinase still bound, per cent of control ([17]; compound 10.0 µM) was 100% and the kinase still bound, per cent of control ([18]; compound 10.0 µM) was 100%. For the same compound, the kinase still bound, per cent of control ([19]; compound 10.0 µM) was 88%, the kinase still bound, per cent of control ([20]; compound 10.0 µM) was 90% and the kinase still bound, per cent of control ([21]; compound 10.0 µM) was 74%. It also gave a kinase still bound, per cent of control ([22]; compound 10.0 µM) of 100%, a kinase still bound, per cent of control ([23]; compound 10.0 µM) of 52% and a kinase still bound, per cent of control ([24]; compound 10.0 µM) of 99%. For the same compound, the kinase still bound, per cent of control ([25]; compound 10.0 µM) was 81%, the kinase still bound, per cent of control ([26]; compound 10.0 µM) was 74% and the kinase still bound, per cent of control ([27]; compound 10.0 µM) was 100%. It also gave a kinase still bound, per cent of control ([28]; compound 10.0 µM) of 45%, a kinase still bound, per cent of control ([29]; compound 10.0 µM) of 62% and a kinase still bound, per cent of control ([30]; compound 10.0 µM) of 85%. For the same compound, the kinase still bound, per cent of control ([31]; compound 10.0 µM) was 89%, the kinase still bound, per cent of control ([32]; compound 10.0 µM) was 89% and the kinase still bound, per cent of control ([33]; compound 10.0 µM) was 85%. It also gave a kinase still bound, per cent of control ([34]; compound 10.0 µM) of 100%, a kinase still bound, per cent of control ([35]; compound 10.0 µM) of 61% and a kinase still bound, per cent of control ([36]; compound 10.0 µM) of 95%. The kinase still bound, per cent of control ([37]; compound 10.0 µM) was 80%, the kinase still bound, per cent of control ([38]; compound 10.0 µM) was 50% and the kinase still bound, per cent of control ([39]; compound 10.0 µM) was 14%. The kinase still bound, per cent of control ([40]; compound 10.0 µM) was 53%, the kinase still bound, per cent of control ([41]; compound 10.0 µM) was 55% and the kinase still bound, per cent of control ([42]; compound 10.0 µM) was 100%.
